From patent US9833405B2, “Biodegradable microdepot delivery system for topical delivery” (Nano and Advanced Materials Institute Limited, priority 2014, dated 2017)
Where a SMILES comes first, the peptide text is derived from it. The star is where a group is joined. Palmitoyl = CCCCCCCCCCCCCCCC(=O)*

Tested on: HaCaT cells
Experiment: Cell viability assay (MTT) for in vitro skin irritation of active ingredients
Assay type: cell-based, human
Conditions: for Cell viability(%): MTT
Description: HaCaT cells, a human keratinocyte cell line, are used as the in vitro model to test any irritation effect of the active ingredients used in the polymeric solution to form the microdepot delivery system of the present invention. The following is the procedures of an MTT assay for testing any skin irritation effect of the active ingredients used in the polymeric solution of the present invention: • a) 12 mM MTT stock solution is prepared by adding 1 mL of sterile PBS into one 5 mg vial of MTT (Component A) and mixed by sonication until the vial of MTT is dissolved in the PBS; • b) HaCaT cells at 5,000 cells per well are seed into a 96-well plate and incubated at 37° C. in 5% CO2 for 24 to 48 hours until the cells become adherent; • c) Culture medium in each well is removed and replaced with 100 μL of test compound (e.g., active ingredient used in the polymeric solution of the present invention); • d) 10 μL of the MTT stock solution prepared in step (a) is added to each well; a negative control containing 100 μL of culture medium and 10 μL of the MTT stock solution is also included for comparison; • e) Both test samples and negative control prepared in step (d) are incubated at 37° C. for 4 hours; • f) 25 μL of the solution is removed from each well after incubation in step (e) followed by adding 50 μL of DMSO to each well and mix thoroughly by pipette; • g) The mixture in step (f) is incubated at 37° C. for 10 minutes; • h) The mixture in each well after the incubation in step (g) is mixed again before measuring absorbance at 540 nm; • i) The mixture is subject to a spectrophotometer to measure the absorbance at 540 nm.
The cell viability of HaCaT cells with the treatment of the test compound is calculated based on the following formula:
[formula] where ^OD(1) is the absorbance of culture medium only; ^OD(2) is the absorbance of the culture medium with the cells; ^OD(3) is the absorbance of the culture medium with the test compound; and ^OD(4) is the absorbance of the culture medium with the cells and test compound.

Compound | Cell viability(%) (test compound 2%) | Cell viability(%) (test compound 4%) | Cell viability(%) (test compound 6%) | Cell viability(%) (test compound 8%) | Cell viability(%) (test compound 10%) | cytotoxicity (viability higher than or equal to control) (at 2%) | Cell viability(%) (test compound 3%) | Cell viability(%) (test compound 5%) | cytotoxicity (viability higher than or equal to control) (concentrations ranging from 3% to 10%) | Cell viability(%) (test compound 0.2%) | Cell viability(%) (test compound 0.5%) | Cell viability(%) (test compound 1%) | cytotoxicity (viability higher than or equal to control) (concentrations ranging from 0.2% to 5%)
NC(=O)c1cccnc1 [Niacinamide, reference compound] | 115 | 91.34 | 77.44 | 84.08 | 80.43 | non-cytotoxic | – | – | – | – | – | – | –
CCCCCCCCCCCCCCCC(=O)N[C@@H](CCCCN)C(=O)N[C@H](C(=O)N[C@H](C(=O)N[C@@H](CCCCN)C(=O)N[C@@H](CO)C(=O)O)[C@@H](C)O)[C@@H](C)O [Pal-KTTKS] (Palmitoyl-KTTKS-OH) | – | 135.1 | – | 141.9 | 127.8 | – | 119 | 122.6 | non-cytotoxic | – | – | – | –
GHK-Cu | 132.7 | – | – | – | – | – | – | 136.1 | – | 135.1 | 139.6 | 144.6 | non-cytotoxic
